Like-named read-outs stand apart in the source and are kept apart here.
System: Serratia marcescens expressing IMP-1 (CL5741)
Assay type: cell-based
Details: with imipenem 1 μg/ml, 95% inhibition of bacterial growth
Method: Antibiotic Potentiation Activity: Determination of Synergistic Concentration
The bacterial strains tested included the clinical strains Escherichia coli expressing NDM-1 (CLB30005, CLB30016), Serratia marcescens expressing IMP-1 (CL5741), and Klebsiella pneumoniae expressing VIM-1 (IHMA599644). Inhibitor activity was measured in the presence and absence of imipenem in a 384-well microplate.
The clinical strains CLB30016, CL5741 and IHMA599644 were grown on trypticase soy agar containing 5% sheep's blood. The bacteria on agar plates were incubated at 35° C. with humidity overnight. The following day, individual colonies from each clinical strain were picked and resuspended in 5 ml saline to attain an OD600 of 0.14, 0.11, 0.15 and 0.13, for CLB30016, CL5741 and IHMA599644, respectively. These were further diluted 1:100 into 1.1× CAMHB and used to inoculate the test wells as described below.
Imipenem in 10 mM 3-(N-morpholino)propanesulfonic acid (MOPS, pH 7) was stored in single use aliquots at −80° C. […] On the day of the assay, 4 μl of antibiotic was added to 45 ul of bacteria followed by 1 μl of test compound and mixed by pipetting and with an orbital shaker. The concentration of antibiotic used in the assay was 1 μg/ml. Microplates were covered and incubated at 35° C. for 22 hours to 24 hours. At the end of the incubation, absorbance was determined using a spectrophotometer.

Nc1ncc(-c2ccc(S(=O)(=O)N[C@@H]3CCNC3)c(S(N)(=O)=O)c2-c2nn[nH]n2)s1 [Example 284, (R)-4-(2-aminothiazol-5-yl)-N1-(pyrrolidin-3-yl)-3-(2H-tetrazol-5-yl)benzene-1,2-disulfonamide]
Serratia marcescens (IMP-1) MITC95: 0.7813 µM

Nc1ccc2cccc(-c3ccc(S(=O)(=O)N[C@@H]4CCNC4)c(S(N)(=O)=O)c3-c3nn[nH]n3)c2n1 [Example 286, (R)-4-(2-aminoquinolin-8-yl)-N1-(pyrrolidin-3-yl)-3-(2H-tetrazol-5-yl)benzene-1,2-disulfonamide]
Serratia marcescens (IMP-1) MITC95: 0.7813 µM

C[C@H](CN)NS(=O)(=O)c1ccc(-c2ccc(N)nc2)c(-c2nn[nH]n2)c1S(N)(=O)=O [Example 393, (R)—N^1-(1-aminopropan-2-yl)-4-(6-aminopyridin-3-yl)-3-(2H-tetrazol-5-yl)benzene-1,2-disulfonamide]
Serratia marcescens (IMP-1) MITC95: 1.042 µM

C[C@@H](CN)NS(=O)(=O)c1ccc(-c2cc(F)cc3[nH]c(N)nc23)c(-c2nn[nH]n2)c1S(N)(=O)=O [Example 397, (S)-4-(2-amino-6-fluoro-1H-benzo[d]imidazol-4-yl)-N^1-(1-aminopropan-2-yl)-3-(2H-tetrazol-5-yl)benzene-1,2-disulfonamide]
Serratia marcescens (IMP-1) MITC95: 0.7813 µM

NCCCNS(=O)(=O)c1ccc(-c2cc(F)cc3[nH]c(N)nc23)c(-c2nn[nH]n2)c1S(N)(=O)=O [Example 402, 4-(2-amino-6-fluoro-1H-benzo[d]imidazol-4-yl)-N^1-(3-aminopropyl)-3-(2H-tetrazol-5-yl)benzene-1,2-disulfonamide]
Serratia marcescens (IMP-1) MITC95: 0.7813 µM

NC[C@@H](CO)NS(=O)(=O)c1ccc(-c2ccc(N)nc2)c(-c2nn[nH]n2)c1S(N)(=O)=O [Example 409, (S)-N^1-(1-amino-3-hydroxypropan-2-yl)-4-(6-aminopyridin-3-yl)-3-(2H-tetrazol-5-yl)benzene-1,2-disulfonamide]
Serratia marcescens (IMP-1) MITC95: 1.563 µM

Nc1ccc(-c2ccc(S(=O)(=O)N[C@H]3CNC[C@H]3O)c(S(N)(=O)=O)c2-c2nn[nH]n2)cn1 [Example 410, 4-(6-aminopyridin-3-yl)-N^1-((3S,4R)-4-hydroxypyrrolidin-3-yl)-3-(2H-tetrazol-5-yl)benzene-1,2-disulfonamide]
Serratia marcescens (IMP-1) MITC95: 0.7813 µM

Nc1ccc(-c2ccc(S(=O)(=O)N[C@H]3CN[C@H](CO)C3)c(S(N)(=O)=O)c2-c2nn[nH]n2)cn1 [Example 411, 4-(6-aminopyridin-3-yl)-N^1-((3R,5S)-5-(hydroxymethyl)pyrrolidin-3-yl)-3-(2H-tetrazol-5-yl)benzene-1,2-disulfonamide]
Serratia marcescens (IMP-1) MITC95: 1.563 µM

Nc1ccc(-c2ccc(S(=O)(=O)N[C@H]3CNC[C@H]3N)c(S(N)(=O)=O)c2-c2nn[nH]n2)cn1 [Example 413, 4-(6-aminopyridin-3-yl)-N^1-((3S,4R)-4-aminopyrrolidin-3-yl)-3-(2H-tetrazol-5-yl)benzene-1,2-disulfonamide]
Serratia marcescens (IMP-1) MITC95: 1.563 µM

NC[C@@H](N)CNS(=O)(=O)c1ccc(-c2ccc(N)nc2)c(-c2nn[nH]n2)c1S(N)(=O)=O [Example 416, (R)-4-(6-aminopyridin-3-yl)-N^1-(2,3-diaminopropyl)-3-(2H-tetrazol-5-yl)benzene-1,2-disulfonamide]
Serratia marcescens (IMP-1) MITC95: 1.563 µM

NC[C@@H](O)CNS(=O)(=O)c1ccc(-c2ccc3nccn3c2)c(-c2nn[nH]n2)c1S(N)(=O)=O [Example 420, (R)-N^1-(3-amino-2-hydroxypropyl)-4-(imidazo[1,2-a]pyridin-6-yl)-3-(2H-tetrazol-5-yl)benzene-1,2-disulfonamide]
Serratia marcescens (IMP-1) MITC95: 1.563 µM

C[C@@H](N)CNS(=O)(=O)c1ccc(-c2ccc3nccn3c2)c(-c2nn[nH]n2)c1S(N)(=O)=O [Example 423, (R)-N^1-(2-aminopropyl)-4-(imidazo[1,2-a]pyridin-6-yl)-3-(2H-tetrazol-5-yl)benzene-1,2-disulfonamide]
Serratia marcescens (IMP-1) MITC95: 0.7813 µM

NC[C@H](CO)NS(=O)(=O)c1ccc(-c2cccc3nc(N)[nH]c23)c(-c2nn[nH]n2)c1S(N)(=O)=O [Example 427, (R)-4-(2-amino-1H-benzo[d]imidazol-4-yl)-N^1-(1-amino-3-hydroxypropan-2-yl)-3-(1H-tetrazol-5-yl)benzene-1,2-disulfonamide]
Serratia marcescens (IMP-1) MITC95: 0.7813 µM

Nc1nc(-c2cccc(-c3ccc(S(=O)(=O)N[C@@H]4CCNC4)c(S(N)(=O)=O)c3-c3nn[nH]n3)c2)c[nH]1 [Example 428, (R)-3′-(2-amino-1H-imidazol-4-yl)-N^4-(pyrrolidin-3-yl)-2-(2H-tetrazol-5-yl)-[1,1′-biphenyl]-3,4-disulfonamide]
Serratia marcescens (IMP-1) MITC95: 0.7813 µM

Nc1nc2c(-c3ccc(S(=O)(=O)N[C@@H]4C[C@H]4N)c(S(N)(=O)=O)c3-c3nnn[nH]3)cccc2[nH]1 [Example 448, 4-(2-amino-1H-benzo[d]imidazol-4-yl)-N^1-((1R,2R)-2-aminocyclopropyl)-3-(1H-tetrazol-5-yl)benzene-1,2-disulfonamide]
Serratia marcescens (IMP-1) MITC95: 1.563 µM

CN(CCN)S(=O)(=O)c1ccc(-c2cccc3[nH]c(N)nc23)c(-c2nn[nH]n2)c1S(N)(=O)=O [Example 449, 4-(2-amino-1H-benzo[d]imidazol-4-yl)-N^1-(2-aminoethyl)-N^1-methyl-3-(2H-tetrazol-5-yl)benzene-1,2-disulfonamide]
Serratia marcescens (IMP-1) MITC95: 1.563 µM

NCCNS(=O)(=O)c1ccc(-c2ccnc(CN)c2)c(-c2nn[nH]n2)c1S(N)(=O)=O [Example 461, N1-(2-Aminoethyl)-4-(2-(aminomethyl)pyridin-4-yl)-3-(2H-tetrazol-5-yl)benzene-1,2-disulfonamide]
Serratia marcescens (IMP-1) MITC95: 3.125 µM

Cc1cc(-c2ccc(S(=O)(=O)NC[C@@H](O)CN)c(S(N)(=O)=O)c2-c2nn[nH]n2)cnc1N [Example 468, (S)-N1-(3-amino-2-hydroxypropyl)-4-(6-amino-5-methylpyridin-3-yl)-3-(2H-tetrazol-5-yl)benzene-1,2-disulfonamide]
Serratia marcescens (IMP-1) MITC95: 0.7813 µM

NCCNS(=O)(=O)c1ccc(-c2ccc3sc(CN)nc3c2)c(-c2nn[nH]n2)c1S(N)(=O)=O [Example 476, N1-(2-aminoethyl)-4-(2-(aminomethyl)benzo[d]thiazol-5-yl)-3-(2H-tetrazol-5-yl)benzene-1,2-disulfonamide]
Serratia marcescens (IMP-1) MITC95: 0.7813 µM

C[C@H](N)CNS(=O)(=O)c1ccc(-c2ccc(N)nc2)c(-c2nn[nH]n2)c1S(N)(=O)=O [Example 479, (S)—N1-(2-aminopropyl)-4-(6-aminopyridin-3-yl)-3-(2H-tetrazol-5-yl) benzene-1,2-disulfonamide]
Serratia marcescens (IMP-1) MITC95: 0.7813 µM

NS(=O)(=O)c1c(S(=O)(=O)NC[C@H]2CNCCN2)ccc(-c2cccc3[nH]cnc23)c1-c1nn[nH]n1 [Example 481, (R)-4-(1H-benzo[d]imidazol-4-yl)-N1-(piperazin-2-ylmethyl)-3-(1H-tetrazol-5-yl)benzene-1,2-disulfonamide]
Serratia marcescens (IMP-1) MITC95: 1.563 µM

Nc1ccc(-c2ccc(S(=O)(=O)NC3CC(N)C3)c(S(N)(=O)=O)c2-c2nn[nH]n2)cn1 [Example 483, N1-((1R,3R)-3-aminocyclobutyl)-4-(6-aminopyridin-3-yl)-3-(2H-tetrazol-5-yl)benzene-1,2-disulfonamide]
Serratia marcescens (IMP-1) MITC95: 0.7813 µM

Nc1ccc(-c2ccc(S(=O)(=O)N3CCNCC3)c(S(N)(=O)=O)c2-c2nn[nH]n2)cn1 [Example 485, 3-(6-aminopyridin-3-yl)-6-(piperazin-1-ylsulfonyl)-2-(2H-tetrazol-5-yl)benzenesulfonamide]
Serratia marcescens (IMP-1) MITC95: 0.7813 µM

Nc1ccc(-c2ccc(S(=O)(=O)NC[C@@H]3CCNC3)c(S(N)(=O)=O)c2-c2nn[nH]n2)cn1 [Example 491, (R)-4-(6-aminopyridin-3-yl)-N1-(pyrrolidin-3-ylmethyl)-3-(2H-tetrazol-5-yl)benzene-1,2-disulfonamide]
Serratia marcescens (IMP-1) MITC95: 0.7813 µM

Nc1ccc(-c2ccc(S(=O)(=O)NCC3(O)CCNCC3)c(S(N)(=O)=O)c2-c2nn[nH]n2)cn1 [Example 492, 4-(6-aminopyridin-3-yl)-N1-((4-hydroxypiperidin-4-yl)methyl)-3-(2H-tetrazol-5-yl)benzene-1,2-disulfonamide]
Serratia marcescens (IMP-1) MITC95: 1.563 µM

Nc1ccc(-c2ccc(S(=O)(=O)N[C@H]3CCCNC3)c(S(N)(=O)=O)c2-c2nn[nH]n2)cn1 [Example 494, (S)-4-(6-aminopyridin-3-yl)-N1-(piperidin-3-yl)-3-(2H-tetrazol-5-yl)benzene-1,2-disulfonamide]
Serratia marcescens (IMP-1) MITC95 (CL5741): 1.563 µM

Nc1ccc(-c2ccc(S(=O)(=O)NCC3(O)CNC3)c(S(N)(=O)=O)c2-c2nn[nH]n2)cn1 [Example 495, 4-(6-aminopyridin-3-yl)-N1-((3-hydroxyazetidin-3-yl)methyl)-3-(2H-tetrazol-5-yl)benzene-1,2-disulfonamide]
Serratia marcescens (IMP-1) MITC95 (CL5741): 0.7813 µM

Cl.Cl.NCCCNS(=O)(=O)c1ccc(-c2ccc(N)nc2)c(-c2nn[nH]n2)c1S(N)(=O)=O [Example 496, N1-(3-aminopropyl)-4-(6-aminopyridin-3-yl)-3-(2H-tetrazol-5-yl)benzene-1,2-disulfonamide hydrogen chloride]
Serratia marcescens (IMP-1) MITC95 (CL5741): 0.7813 µM
